Source: patent publication US9765074B2, “Inhibitors of the renal outer medullary potassium channel” (Merck Sharp & Dohme Corp., priority 2013, dated 2017)

target: T1, hROMK (hKir1.1) (Homo sapiens, UniProt P48048); assay: Thallium Flux Assay (ROMK channel functional thallium flux, FLIPR-Tetra); assay type: cell-based; conditions: HEK293 cells stably expressing hROMK (hKir1.1); 30 min compound incubation
T1 construct: expressed in transfected cells
T1 sequence (P48048 1-391): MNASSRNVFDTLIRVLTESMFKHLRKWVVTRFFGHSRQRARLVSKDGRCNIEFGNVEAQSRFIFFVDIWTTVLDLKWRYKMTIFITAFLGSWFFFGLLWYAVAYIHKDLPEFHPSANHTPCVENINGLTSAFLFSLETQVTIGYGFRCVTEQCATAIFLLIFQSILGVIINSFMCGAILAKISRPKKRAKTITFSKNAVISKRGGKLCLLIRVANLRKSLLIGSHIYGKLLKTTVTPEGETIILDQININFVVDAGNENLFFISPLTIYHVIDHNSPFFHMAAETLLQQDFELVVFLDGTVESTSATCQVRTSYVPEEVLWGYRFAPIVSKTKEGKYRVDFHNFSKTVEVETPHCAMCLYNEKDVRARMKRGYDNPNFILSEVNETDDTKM
Description: The following Thallium Flux Assay was performed on each of the final product compounds in the Examples.
Cell Culture Conditions—HEK293 cells stably expressing hROMK (hKir1.1) were grown at 37° C. in a 10% CO2 humidified incubator in complete growth media: Dulbecco's Modified Eagle Medium supplemented with non-essential amino acids, Penicillin/Streptomycin/Glutamine, G418 and FBS. At >80% confluency, aspirate the media from the flask and rinse with 10 mL Calcium/Magnesium-free PBS. Add 5 mL of 1× trypsin (prepared in Ca/Mg Free PBS) to T-225 flask and return flask to 37° C./CO2 incubator for 2-3 minutes. To dislodge the cell, gently bang the side of the flask with your hand. Triturate the cells completely and then transfer the cells to 25 mL complete media. Centrifuge at 1,500 rpm for 6 min followed by resuspension in complete growth media and determine cell concentration. For typical re-seeding, 4E6 cells/T-225 flask will attain >80% confluency in 4 days. Under ideal growth conditions and appropriate tissue culture practices, this cell line is stable for 40-45 passages. FluxOR Kit Components (Invitrogen F10017) • FluxOR™ Reagent (Component A) • FluxOR™ Assay Buffer (Component B)—10× Concentrate • PowerLoad™ Concentrate (Component C)—100× Concentrate • Probenecid (Component D)—Lyophilized sample is kept at −20° C. Water soluble, 100× after solubilization in 1 mL water. Store at 4° C. • FluxOR™ Chloride-free Buffer (Component E)—5× Concentrate • Potassium sulfate (K2SO4) Concentrate (Component F)—125 mM in water. Store at 4° C. • Thallium sulfate (Tl2SO4) Concentrate (Component G)—50 mM in water. Store at 4° C. • DMSO (dimethyl sulfoxide, Component H)—1 mL (100%) Reagent Preparation: FluxOR Working Solutions • 1000× FluxOR™ Reagent: Reconstitute a vial of component A in 100 μl DMSO; Mix well; Store 10 μl aliquots at −20° C. • 1× FluxOR™ Assay Buffer: Dilute Component B 10-fold with water; Adjust pH to 7.4 with Hepes/NaOH; Filter and store at 4° C. • Probenecid/Assay Buffer: 100 mL of 1× FluxOR™ Assay Buffer; 1 mL of reconstituted component D; Store at 4° C. • Loading Buffer (per microplate): 10 μl 1000× FluxOR™ Reagent; 100 μl component C; 10 mL Probenecid/Assay Buffer • Compound Buffer (per microplate): 20 mL Probenecid/Assay Buffer; 0.3 mM ouabain (10 mM ouabain in water can be stored in amber bottle/aluminum foil at room temperature); Test compound • 1× FluxOR™ Chloride-Free Buffer: Prepare 1× working solution in water. Can be stored at room temperature • Stimulant Buffer (prepared at 5× final concentration in 1× FluxOR™ Chloride-Free Buffer): 7.5 mM Thallium sulfate and 0.75 mM Potassium sulfate (to give a final assay concentration of 3 mM Thallium/0.3 mM Potassium). Store at 4° C. when not in use. If kept sterile, this solution is good for months. Assay Protocol—The ROMK channel functional thallium flux assay is performed in 384 wells, using the FLIPR-Tetra instrument. HEK-hKir1.1 cells are seeded in Poly-D-Lysine microplates and kept in a 37° C.-10% CO2 incubator overnight. On the day of the experiment, the growth media is replaced with the FluxOR™ reagent loading buffer and incubated, protected from light, at ambient temperature (23-25° C.) for 90 min. The loading buffer is replaced with assay buffer±test compound followed by 30 min incubation at ambient temperature, where the Thallium/Potassium stimulant is added to the microplate. Step Protocol • 1. Seed HEK-hKir1.1 cells (50 μl at 20,000 cells/well) in 384-well PDL coated Microplates • 2. Allow cells to adhere overnight in humidified 37° C./10% CO2 incubator • 3. Completely remove cell growth media from microplate and replace with 25 μl loading buffer • 4. Incubate Microplate at room temperature, protected form light, for 90 min • 5. Remove loading buffer and replace with 25 μl 1× Assay Buffer±test compound. • 6. Incubate microplate at room temperature, protected from light, for 30 min • 7. At FLIPR-Tetra 384: Add stimulant (Thallium/Potassium) solution to microplate and monitor fluorescence. […]

SMILES | IC50
CC1(C)CC2(CCN(C[C@@H](O)c3ccc(-n4cnnn4)nn3)CC2)C(=O)N1C1=CC(=O)OC1 [Example 190, 8-{(2R)-2-hydroxy-2-[6-(1H-tetrazol-1-yl)pyridazin-3-yl]ethyl}-3,3-dimethyl-1-oxo-2-(5-oxo-2,5-dihydrofuran-3-yl)-2-aza-8-azoniaspiro[4.5]decane] | 50 nM
COc1cc(-n2cnnn2)ccc1[C@H](O)CN1CCC2(CC1)CCN(C1=C(C)C(=O)OC1)C2=O [Example 120, 8-{(2S)-2-hydroxy-2-[2-methoxy-4-(1H-tetrazol-1-yl)phenyl]ethyl}-2-(4-methyl-5-oxo-2,5-dihydrofuran-3-yl)-1-oxo-2-aza-8-azoniaspiro[4.5]decane] | 10 nM
O=C1C=C(N2CCC3(CCN(C[C@H](O)c4ccc(-n5cnnn5)cc4F)CC3)C2=O)CO1 [Example 13, 8-{(2R)-2-[2-fluoro-4-(1H-tetrazol-1-yl)phenyl]-2-hydroxyethyl}-1-oxo-2-(5-oxo-2,5-dihydrofuran-3-yl)-2-aza-8-azoniaspiro[4.5]decane] | 20 nM
CC1=C(N2CCC3(CCN(C[C@H](O)c4cnc(-n5cnnn5)nc4C)CC3)C2=O)COC1=O [Example 85, 8-{(2R)-2-hydroxy-2-[4-methyl-2-(1H-tetrazol-1-yl)pyrimidin-5-yl]ethyl}-2-(4-methyl-5-oxo-2,5-dihydrofuran-3-yl)-1-oxo-2-aza-8-azoniaspiro[4.5]decane] | 30 nM
C[C@H]1CC2(CCN(C[C@@H](O)c3ccc(-n4cnnn4)nc3)CC2)C(=O)N1C1=CC(=O)OC1 [Example 82, (3S)-8-{(2S)-2-hydroxy-2-[6-(1H-tetrazol-1-yl)pyridin-3-yl]ethyl}-3-methyl-1-oxo-2-(5-oxo-2,5-dihydrofuran-3-yl)-2-aza-8-azoniaspiro[4.5]decane] | 10 nM
CC1=C(N2C(=O)C3(CCN(C[C@H](O)c4ccc(-n5cnnn5)nc4)CC3)CC2C)COC1=O (single isomer, unassigned) [Example 66] | 10 nM
CC1=C(N2CCC3(CCN(C[C@@H](O)c4ccc(-n5cnnn5)nn4)CC3F)C2=O)COC1=O (single isomer, unassigned) [Example 184] | 70 nM
CC1OC(=O)C=C1N1C(=O)C2(CCN(C[C@H](O)c3ccc(-n4cnnn4)nc3)CC2)C[C@@H]1C (single isomer, unassigned) [Example 228] | 20 nM
CC1=C(N2CCC3(CCN(C[C@H](O)c4cccc(-n5cnnn5)n4)CC3)C2=O)COC1=O [Example 73, 8-{(2S)-2-hydroxy-2-[6-(1H-tetrazol-1-yl)pyridin-2-yl]ethyl}-2-(4-methyl-5-oxo-2,5-dihydrofuran-3-yl)-1-oxo-2-aza-8-azoniaspiro[4.5]decane] | 170 nM
CC1=C(N2CCC3(CCN(C[C@H](O)c4ccc(-n5cnnn5)nc4)CC3F)C2=O)COC1=O (single isomer, unassigned) [Example 194] | 10 nM
CC1=C(N2C(=O)C3(CCN(C[C@@H](O)c4ccc(-n5cnnn5)nn4)CC3)CC2C)COC1=O (single isomer, unassigned) [Example 124] | 40 nM
O=C1C=C(N2C=CC3(CCN(C[C@@H](O)c4ccc(-n5cnnn5)nc4)CC3)C2=O)CO1 [Example 155, 8-{(2S)-2-hydroxy-2-[6-(1H-tetrazol-1-yl)pyridin-3-yl]ethyl}-1-oxo-2-(5-oxo-2,5-dihydrofuran-3-yl)-2-aza-8-azoniaspiro[4.5]dec-3-ene] | 60 nM
CC1=C(N2CCC3(CCN(C[C@H](O)c4ccc(-n5cnnn5)c(C#N)c4)CC3)C2=O)COC1=O [Example 95, 8-{(2R)-2-[3-cyano-4-(1H-tetrazol-1-yl)phenyl]-2-hydroxyethyl}-2-(4-methyl-5-oxo-2,5-dihydrofuran-3-yl)-1-oxo-2-aza-8-azoniaspiro[4.5]decane] | 50 nM
CC1=C(N2CCC3(CCN(C[C@@H](O)c4ccc(-n5cnnn5)cc4F)CC3)C2=O)COC1=O [Example 37, 8-{(2S)-2-[2-fluoro-4-(1H-tetrazol-1-yl)phenyl]-2-hydroxyethyl}-2-(4-methyl-5-oxo-2,5-dihydrofuran-3-yl)-1-oxo-2-aza-8-azoniaspiro[4.5]decane] | 10 nM

Continued by falling IC50, values first:

IC50 | SMILES
210 nM | CC1=C(N2CC(O)C3(CCN(CCc4ccc(-n5cnnn5)nn4)CC3)C2=O)COC1=O (single isomer, unassigned) [Example 243, 4-hydroxy-2-(4-methyl-5-oxo-2,5-dihydrofuran-3-yl)-1-oxo-8-{2-[6-(1H-tetrazol-1-yl)pyridazin-3-yl]ethyl}-2-aza-8-azoniaspiro[4.5]decane]
100 nM | CC1=C(N2CCC3(CCN(C[C@@H](O)c4ncc(-n5cnnn5)cc4F)CC3)C2=O)COC1=O [Example 148, 8-{(2R)-2-[3-fluoro-5-(1H-tetrazol-1-yl)pyridin-2-yl]-2-hydroxyethyl}-2-(4-methyl-5-oxo-2,5-dihydrofuran-3-yl)-2,8-diazaspiro[4.5]decan-1-one]
70 nM | CC1=C(N2CCC3(CCN(C[C@@H](O)c4cc(-n5cnnn5)ccn4)CC3)C2=O)COC1=O [Example 71, 8-{(2R)-2-hydroxy-2-[4-(1H-tetrazol-1-yl)pyridin-2-yl]ethyl}-2-(4-methyl-5-oxo-2,5-dihydrofuran-3-yl)-1-oxo-2-aza-8-azoniaspiro[4.5]decane]
40 nM | CC1=C(N2CCC3(CCN(C[C@H](O)c4cc(-n5cnnn5)ccn4)CC3)C2=O)COC1=O [Example 72, 8-{(2S)-2-hydroxy-2-[4-(1H-tetrazol-1-yl)pyridin-2-yl]ethyl}-2-(4-methyl-5-oxo-2,5-dihydrofuran-3-yl)-1-oxo-2-aza-8-azoniaspiro[4.5]decane]
40 nM | CC1=C(N2CCC3(CCN(C[C@H](O)c4ccc(-n5cnnn5)nn4)CC3F)C2=O)COC1=O (single isomer, unassigned) [Example 196]
30 nM | CC1=C(N2CCC3(CCN(C[C@@H](O)c4ccc(-n5cnnn5)nn4)CC3F)C2=O)COC1=O (single isomer, unassigned) [Example 197]
20 nM | CC1=C(N2C(=O)C3(CCN(C[C@H](O)c4ccc(-n5cnnn5)nc4C)CC3)CC2C)COC1=O (mixture of isomers) [Example 57, 8-{(2R)-2-hydroxy-2-[2-methyl-6-(1H-tetrazol-1-yl)pyridin-3-yl]ethyl}-3-methyl-2-(4-methyl-5-oxo-2,5-dihydrofuran-3-yl)-1-oxo-2-aza-8-azoniaspiro[4.5]decane]
10 nM | CC1=C(N2CCC3(CCN(CCc4ccc(-n5cnnn5)nn4)CC3)C2=O)COC1=O [Example 232, 8-(2-(6-(1H-Tetrazol-1-yl)pyridazin-3-yl)ethyl)-2-(4-methyl-5-oxo-2,5-dihydrofuran-3-yl)-2,8-diazaspiro[4.5]decan-1-one]
